We go through 22 molecules from patent publication US4939133A, “N-substituted-2-hydroxy-α-oxo-benzeneacetamides and pharmaceutical compositions having activity as modulators of the arachidonic acid cascade” (Warner-Lambert Company, priority 1985, dated 1990).

The test system of assay [1] is Human Leukocyte Lipoxygenase. As to the kind of experiment: Human Leukocyte Lipoxygenase Assay (LDA-H / LDAH). The note with it: for IC50: 50% reduction of reaction rate vs control, E -number means X 10^-no. The format is biochemical. How it is done: Human Leukocyte Lipoxygenase Assay (LDA-H)
Whole blood is collected from normal volunteers and spun in a refrigerated centrifuge for four minutes at 1°-6° C. at 3800 g. The buffy coat is manually separated and washed twice with chilled 0.83% NH4 Cl and centrifuged at 1000 RPM for ten minutes at 4° C. The white cell is suspended in culture media-EMEM supplemented with 6% Agamma human serum, tricine buffer, and neomycin and recentrifuged at 1000 g to yield a pellet containing the leukocytes used for the preparation of the acetone pentane powder.
The acetone-pentane powder is prepared utilizing a modification of the procedure reported for human platelet lipoxygenase. See Siegel, et al, Arachidonate Metabolism via Lipoxygenase and 12-L-hydroperoxy-5-Eicostetraenoic acid Peroxidase Sensitive to Antiinflammatory Drugs, Proc. Natl. Acad. Sci., USA 77:308, 1980 and D. P. Wallach and V. R. Brown, a novel Preparation of Human Platlet Lipoxygenase, Biochem. Biophys. Acta. 663:361, 1981. Buffy coat prepared above is resuspended in 5-7 volumes of cold 0.1M Tris buffer, pH 7.4 containing 0.154M NaCl. The suspension is centrifuged at 13,300 g for ten minutes at 4° C. The resultant pellet was retained, resuspended in five volumes of cold acetone, recentrifuged at 13,300 g and resuspended in five volumes of cold pentane. The pentane suspension is centrifuged for ten minutes at 13,300 g to give a pellet which is dried in the cold under vacuum with periodic pulverization. The dry powder is stable for several weeks when stored at -88° C.
Enzyme stock solution is prepared in the following manner. About 15 mg of the acetone-pentane powder sis suspended in 4 ml of cold tris buffer (0.1M, pH 7.4), allowed to stand for five minutes, and homogenized thorougly. The homogenate is sonicated three times for 15 seconds each time, diluted to 7 ml with cold tris buffer (0.1M, pH 7.4), and centrifuged at 4° C. for 60 minutes at 13,300 g. The supernatent is retained and diluted to a total of 10 ml with cold tris buffer (0.1M, pH 7.4) to give the stck enzyme solution. Additional dilutions of 2-50 fold are done as necessary to locate optimal enzyme reaction rate in the assay described below.
Substrate solution is prepared at 100 μM or 1.0 μM concentrations of arachidonic acid or linoleic acid in 0.1M tris buffer, pH 9.0 containing 20% ethanol.
The enzyme reaction is followed spectrophotometrically by the appearance of a conjugated diene product at 234 nm. The reaction is monitored at 24° C. using a Gilford Model 2600 spectrophotometer. […] The effects of inhibitors on the reaction are compared with control reactions run under indentical conditions. Routinely, each compounds of the present invention is incubated with the enzyme for five minutes prior to addition of substrate to initiate the reaction. Inhibition expressed as IC50 as molar concentration of the compound required to reduce reaction rate to 50% control.

For assay [2], the target named is T1, human leukocyte 5-lipoxygenase (Homo sapiens, UniProt P09917).
T1 construct: endogenous in cells; host or cells: leukocytes from fresh blood of normal adult men
T1 sequence (P09917 1-674): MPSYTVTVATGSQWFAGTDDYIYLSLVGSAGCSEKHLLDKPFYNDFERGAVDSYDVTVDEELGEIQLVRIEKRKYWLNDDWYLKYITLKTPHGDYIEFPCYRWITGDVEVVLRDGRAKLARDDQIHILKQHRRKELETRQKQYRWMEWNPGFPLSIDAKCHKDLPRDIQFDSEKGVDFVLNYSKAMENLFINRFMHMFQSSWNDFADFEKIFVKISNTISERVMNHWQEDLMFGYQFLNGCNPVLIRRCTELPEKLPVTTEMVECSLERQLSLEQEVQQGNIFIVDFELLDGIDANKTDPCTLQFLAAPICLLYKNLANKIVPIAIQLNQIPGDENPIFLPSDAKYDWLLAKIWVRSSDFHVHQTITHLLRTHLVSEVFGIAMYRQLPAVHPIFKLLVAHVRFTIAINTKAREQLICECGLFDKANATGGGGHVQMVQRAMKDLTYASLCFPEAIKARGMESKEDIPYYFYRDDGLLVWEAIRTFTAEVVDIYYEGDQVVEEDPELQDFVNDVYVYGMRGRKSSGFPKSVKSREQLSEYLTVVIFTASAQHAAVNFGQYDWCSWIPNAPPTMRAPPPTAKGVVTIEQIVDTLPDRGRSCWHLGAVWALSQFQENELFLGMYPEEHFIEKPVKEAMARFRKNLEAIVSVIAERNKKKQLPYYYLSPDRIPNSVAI
As to the kind of experiment: 5-Lipoxygenase inhibition in human leukocytes, 5-HETE formation (5LOA1, 5LOA in Table 6). It counts as cell-based. The note with it: 50% inhibition of 5-HETE formation, E -number means X 10^-no. An excerpt:
To Evaluate the Effect of Each Compounds as a 5-Lipoxygenase Inhibitor in Comparison to Standard Reference Agents in Human Leukocytes (5LOAl)
The purpose of this assay is to evaluate the activity of each compound as an inhibitor of human leukocyte 5-lipoxygenase.
Arachidonic acid and calcium ionophore A23187 are obtained from Sigma (St. Louis, MO). Silica gel plates, GF are obtained from Analtech (Newark, DE). Arachidonic acid, (1-^14 C) and 5-HETE (^3 H), 5-(S)-hydroxy-6-trans, 8,11,14-cis eicosatetraenoic acid, are obtained from New England Nuclear (Boston, MA). Six percent Dextran-70 in 0.9% NaCl is obtained from Cuffer Labs (Berkeley, CA).
Preparation of Leukocytes
Fresh blood from normal adult men who had not received any drugs for at least the previous five days is obtained by the Community Research Clinic (WL/PD) using venipuncture and collected into heparinized vacuotainer tubes. To every 100 ml of pooled blood is added 25 ml of dextran solution (6% dextran -70 in 0.9% sodium chloride containing 3% dextrose) and this is mixed gently in a plastic cylinder. The mixture is left to stand at room temperature for at least 90 minutes. The upper layer which is rich in leukocytes and platelets is then carefully decanted into 50 ml plastic tubes and centrifuged at about 100×g for eight minutes in and IEC centrifuge and rotor number 269 (about 600 rpm). The supernatant fluid is discarded and the pellet is resuspended in 10 ml of 0.87% ammonium chloride for exactly two minutes. This procedure is to lyse completely contaminating red blood cells. Leukocytes are then separated by centrifugation for ten minutes. The pellet is washed three times by suspension in 20 ml PBS (sodium chloride, 7.1 g; Na2 HPO4, 1.15 g; KH2 PO4,0.2 g, and KCl, 0.2 g/L) and centrifuged as before. The final pellet is suspended in PBS containing 0.87 mM CaCl2. Viability of the cells is then checked using trypan blue exclusion method and is found to be over 90%.
5-Lipoxygenase Enzyme Assay
Leukocyte cells in suspension (0.98 ml) are incubated with or without test compounds for five minutes at 37° C. in a shaking water bath. At this time a […] mixture is perpared per 1 ml of cell suspension: 100 mM arachidonic acid, 1 μl, 0.05 μCi ^14 C-arachidonic acid in 5 μl; 1 mM calcium ionophore A23187, 10 μl (1). This mixture is added and the incubation continued for five minutes. The reaction is stopped by adding four volumes of absolute ethanol and the mixture is kept in ice for 30 minutes. The floculated precipitate is separated by centrifugation at about 37,000×g for 20 minutes (Beckman Instruments rotor number 40). The alcohol extract is taken to dryness under a stream of nitrogen and the residue is dissolved in 100-200 μl absolute ethanol. At the time any turbidity is removed by centrifugation. An aliquot (25-50 μl) is applied onto 20×20 cm silica gel TLC plate and developed using the following solvent system: diethyl ether, petroleum ether (2040°C.),acetic acid (50:50: 1 v/v). Zones of 1 cm apart are scraped from the TLC plate and transferred to mini-vials. Methanol (0.5 ml) is added to dissolve the radioactivity adsorbed to the silica gel and scintillation fluid (H. P., Beckman), 5 ml is then added and vials are counted in a liquid scintillation counter. A sample of ^3 H-5-HETE is applied and used for the identification of the formed 5-HETE. Total radioactivity in the test as well as the control samples are normalized and the amount of 5-HETE present is calculated accordingly.
IC50 values are defined as the concentrations of test agents which caused a 50% inhibition of the formation of 5-HETE as compared to control and are determined by inspection of the concentration-response curves.

Several values for one entry are separate records, joined by “and”; a condition that tells them apart may be missing. Identical values can stand only once. Like-named read-outs stand apart in the source and are kept apart here.

For `O=C(Nc1ccc(CCc2ccc(O)c(O)c2)cc1)c1ccccc1O` [Example 47, Benzamide, N-[4-[2-(3,4-dihydroxyphenyl)ethyl]phenyl]-2-hydroxy], in assay [1] (2.50 E -5 M), the “% Inhibition (LDAH)” value worked out at 0.0%.

On to `Cc1ccc(C(=O)N(C)c2ccc(CCc3ccc(O)c(O)c3)cc2)c(O)c1` [Example 43], for which, in assay [2] (read-out: IC50 (5LOA)), the IC50 worked out at 5.3 µM.

As for `CCCCCCCCCCc1ccc(NC(=O)c2ccccc2O)cc1` [Example 13], the “% Inhibition (LDAH)” value in assay [1] (2.50 E -5 M) came to 0.0%.

With `COc1ccc(CCc2ccc(NC(=O)C(=O)c3cccc(C(C)(C)C)c3O)cc2)cc1OC` [Example 54, N-[4-[2-(3,4-dimethoxyphenyl)ethyl]phenyl]-3-(1,1-dimethylethyl)-2-hydroxy-α-oxo-benzeneacetamide], the IC50 in assay [1] stood at 0.28 µM.

`COc1ccc(CCc2ccc(NC(=O)c3ccccc3O)cc2)cc1OC` [Example 48, N-[4-[2-(3,4-dimethoxyphenyl)ethyl]phenyl]-2-hydroxybenzamide]: the IC50 in assay [2] (read-out: IC50 (5LOA)) is 4.2 µM and 3.5 µM. Moreover, the “% Inhibition (LDAH)” value in assay [1] (2.50 E -5 M) came to 0.0%.

`COc1ccc(CCc2ccc(N(C)C(=O)C(=O)c3ccccc3O)cc2)cc1OC` [Example 51, N-Methyl-N-[4-(2-(3,4-dimethoxyphenyl)ethyl)phenyl]-2-hydroxy-α-oxo-benzeneacetamide]: the IC50 in assay [2] (read-out: IC50 (5LOA)) was found to be 11.1 µM.

Take `O=C(Nc1ccc(CCc2ccc(Cl)c(Cl)c2)cc1)c1ccc(Cl)cc1O` [Example 36]: in assay [1] (2.50 E -5 M), the “% Inhibition (LDAH)” value is on record as 0.0%.

Regarding `CCCCCCCCCCc1ccc(NC(=O)c2c(O)cccc2O)cc1` [Example 25], in assay [1] (8.00 E -5 M), the “% Inhibition (LDAH)” value came to 0.0%.

The molecule `CCCCCCCCCCc1ccc(NC(=O)c2cccc(C)c2O)cc1` [Example 22] came in with an IC50 in assay [1] of 0.68 µM.

In the case of `O=C(Nc1ccc(CCc2ccc(O)c(O)c2)cc1)C(=O)c1ccccc1O` [Example 53, N-[4-[2-(3,4-dihydroxyphenyl)ethyl]-phenyl]-2-hydroxy-α-oxo-benzeneacetamide], the IC50 amounted to 3.38 µM in assay [2] (read-out: IC50 (5LOA)) and 17 µM in assay [1].

As to `CCCCCCCCCCc1ccc(NC(=O)c2cc([N+](=O)[O-])ccc2O)cc1` [Example 21, N-(4-n-decylphenyl)-2-hydroxy-5-nitro-benzamide], in assay [2] (IC50 (5LOA)), the IC50 was 20.8 µM.

In assay [1], `COc1ccc(CCc2ccc(NC(=O)c3cccc(Cl)c3O)cc2)cc1OC` [Example 23] returned an IC50 of 4.1 µM.

Consider `O=C(Nc1ccc(CCc2ccc(Cl)c(Cl)c2)cc1)c1cccc(Cl)c1O` [Example 34], for which the IC50 in assay [2] (read-out: IC50 (5LOA)) came out at 39.2 µM.

With `CCCCCCCCCCc1ccc(NC(=O)c2cc(Br)ccc2O)cc1` [Example 12], in assay [1] (2.50 E -5 M), the “% Inhibition (LDAH)” value stood at 0.0%.

The molecule `CCCCCCCCCCc1ccc(NC(=O)c2ccc(Cl)cc2O)cc1` [Example 7] yielded an IC50 in assay [1] of 2.8 µM.

For the molecule `CC(C)(C)c1cccc(C(=O)C(=O)Nc2ccc(CCc3ccc(O)c(O)c3)cc2)c1O` [Example 55, N-[4-[2-(3,4-dihydroxyphenyl)ethyl]phenyl]-3-(1,1-dimethylethyl)-2-hydroxy-α-oxobenzenacetamide], the IC50 in assay [2] (read-out: IC50 (5LOA)) was 7.1 µM and 8.17 µM; in assay [1], 3.9 µM.

In the case of `COc1ccc(CCc2ccc(NC(=O)c3cc4ccccc4cc3O)cc2)cc1OC` [Example 38], the “% Inhibition (LDAH)” value in assay [1] (2.50 E -5 M) is 0.0%.

Regarding `COc1ccc(CCc2ccc(NC(=O)C(=O)c3ccccc3O)cc2)cc1OC` [Example 52, N-[4-(2-(3,4-dimethoxyphenyl)ethyl)phenyl]-2-hydroxy-α-oxo-Benzeneacetamide], the figures for the half-inhibitory concentration (IC50) in assay [2] (read-out: IC50 (5LOA)) and in assay [1] were 5 µM and 0.184 µM, respectively.

For `COc1ccc(CCc2ccc(NC(=O)C(=O)c3cccc(Cl)c3O)cc2)cc1OC` [Example 60, 3-chloro-N-[4-[2-(3,4-dimethoxyphenyl)ethy]-phenyl]-2-hydroxy-α-oxo-benzenacetamide], in assay [1], the IC50 was 120 µM.

In the case of `COc1ccc(C(=O)Nc2ccc(CCc3ccc(O)c(O)c3)cc2)c(O)c1` [Example 8, N-[4-[2-(3,4-Dihydroxyphenyl)ethyl]phenyl]-2-hydroxy-4-methoxybenzamide], the IC50 in assay [2] (read-out: IC50 (5LOA)) stood at 7.1 µM.

`COc1cc(CCc2ccc(NC(=O)c3ccc(C)cc3O)cc2)ccc1O` [Example 26]: in assay [1], half-maximal inhibition (IC50) was put at 24 µM.

For `CCCCCCCCCCc1ccc(NC(=O)c2cc3ccccc3cc2O)cc1` [Example 49, 2-Naphthalenecarboxamide, N-(4-decylphenyl)-3-hydroxy], the “% Inhibition (LDAH)” value in assay [1] (2.50 E -5 M) turned out to be 0.0%.

By IC50 is commonly meant the point on the concentration scale where inhibition reaches its midpoint.
